Experimental data from US20100179109A1, “RENIN INHIBITORS” (priority 2007, published 2010).

Molecular target: T1, trypsin-activated recombinant human renin (Homo sapiens, UniProt P00797)
T1 sequence (P00797 67-406): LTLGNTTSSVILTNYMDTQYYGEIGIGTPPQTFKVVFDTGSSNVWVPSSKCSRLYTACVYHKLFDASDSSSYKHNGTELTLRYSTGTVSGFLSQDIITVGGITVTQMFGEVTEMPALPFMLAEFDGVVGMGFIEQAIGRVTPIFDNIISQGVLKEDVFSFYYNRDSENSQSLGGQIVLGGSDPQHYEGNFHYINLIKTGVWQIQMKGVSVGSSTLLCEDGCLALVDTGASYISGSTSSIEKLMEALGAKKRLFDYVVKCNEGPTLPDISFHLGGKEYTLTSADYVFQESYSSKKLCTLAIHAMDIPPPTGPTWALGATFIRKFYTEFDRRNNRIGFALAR
Assay: In vitro renin assay, fluorescently labeled peptide, LJL Acquest, results as pIC50 (Example 22)
Assay type: biochemical
Conditions: found not to demonstrate inhibition at concentrations below the stated value
Protocol: The potency of renin inhibitors was measured using an in vitro renin assay. In this assay, renin-catalyzed proteolysis of a fluorescently labeled peptide converts the peptide from a weakly fluorescent to a strongly fluorescent molecule. The following test protocol was used. Substrate solution (5 μl; 2 μM Arg-Glu-Lys(5-Fam)-Ile-His-Pro-Phe-His-Leu-Val-Ile-His-Thr-Lys(5,6 Tamra)-Arg-CONH2 in 50 mM Hepes, 125 mM NaCl, 0.1% CHAPS, pH 7.4) then trypsin-activated recombinant human renin (Scott, Martin J. et. al. Protein Expression and Purification 2007, 52(1), 104-116; 5 μL; 600 pM renin in 50 mM Hepes, 125 mM NaCl, 0.1% CHAPS, pH 7.4) were added sequentially to a black Greiner low volume 384-well plate (cat.#784076) pre-stamped with a 100 nl DMSO solution of compound at the desired concentration. The assay plates were incubated at room temperature for 2 hours with a cover plate then quenched by the addition of a stop solution (2 μL; 5 μM of Bachem C-3195 in 50 mM Hepes, 125 mM NaCl, 0.1% CHAPS, pH 7.4, 10% DMSO). The assay plates were read on an LJL Acquest using a 485 nm excitation filter, a 530 nm emission filter, and a 505 nm dichroic filter. Compounds were initially prepared in neat DMSO at a concentration of 10 mM. For inhibition curves, compounds were diluted using a three fold serial dilution and tested at 11 concentrations (e.g. 50 μM-0.8 nM or 25 μM-0.42 nM or 2.5 μM to […]). Curves were analyzed using ActivityBase and XLfit, and results were expressed as pIC50 values.

| IC50 [µM] | SMILES |
| --- | --- |
| ≥ 50 | CNCc1ccc(C(=O)N2CCOC(C(O)(CCCNC(=O)OC)c3cccc(F)c3-c3cc(C)cc(OC)c3)C2)cc1 (centres unmarked) |
| ≥ 50 | COC(=O)NCCCC(O)(c1cccc(F)c1-c1cc(C)cc(OC)c1)C1CN(C(=O)C2CCC(N)C2)CCO1 (centres unmarked) [methyl {4-(4-{[3-aminocyclopentyl]carbonyl}-2-morpholinyl)-4-[6-fluoro-3′-methyl-5′-(methyloxy)-2-biphenylyl]-4-hydroxybutyl}carbamate] |
| ≥ 50 | CNCc1ccc(C(=O)N2CCCC(C(O)(CCCNC(=O)OC)c3cccc(F)c3-c3cccs3)C2)cc1 (centres unmarked) [methyl {4-[3-fluoro-2-(2-thienyl)phenyl]-4-hydroxy-4-[1-({4-[(methylamino)methyl]phenyl}carbonyl)-3-piperidinyl]butyl}carbamate] |

The next lines start with the compound.

| SMILES | IC50 [µM] |
| --- | --- |
| COCCCCC(O)(c1ccccc1Oc1c(C)cccc1C)C1CCCN(C(=O)c2ccc(CN)cc2)C1 (centres unmarked) [1-(1-{[4-(aminomethyl)phenyl]carbonyl}-3-piperidinyl)-1-{2-[(2,6-dimethylphenyl)oxy]phenyl}-5-(methyloxy)-1-pentanol] | ≥ 50 |
| COCCCCC(O)(c1cccc(Cl)c1Cc1ccccc1C)C1CCCN(C(=O)c2ccc(CN)cc2)C1 (centres unmarked) [1-(1-{[4-(aminomethyl)phenyl]carbonyl}-3-piperidinyl)-1-{3-chloro-2-[(2-methylphenyl)methyl]phenyl}-5-(methyloxy)-1-pentanol] | ≥ 50 |
| CNCc1ccc(C(=O)N2CCOC(C(O)(CCCCOC)c3cccc(Cl)c3-c3nc(C(C)C)c4ccccc4n3)C2)cc1 (centres unmarked) [1-{3-chloro-2-[4-(1-methylethyl)-2-quinazolinyl]phenyl}-1-[4-({4-[(methylamino)methyl]phenyl}carbonyl)-2-morpholinyl]-5-(methyloxy)-1-pentanol] | ≥ 50 |
| CNCc1ccc(C(=O)N2CCCC(C(O)(CCCCOC)c3cccc(Cl)c3Cc3cccc(C)c3)C2)cc1 (centres unmarked) [1-{3-chloro-2-[(3-methylphenyl)methyl]phenyl}-1-[1-({4-[(methylamino)methyl]phenyl}carbonyl)-3-piperidinyl]-5-(methyloxy)-1-pentanol] | ≥ 50 |
| CCc1cccc(-c2c(Cl)cccc2C(OCCNC(=O)OC)C2CN(C(=O)c3ccc(CNC)cc3)CCO2)c1 (centres unmarked) [methyl [2-({(6-chloro-3′-ethyl-2-biphenylyl)[4-({4-[(methylamino)methyl]phenyl}carbonyl)-2-morpholinyl]methyl}oxy)ethyl]carbamate] | ≥ 50 |
